Earlier results in patent publication US6717012B2, “Antioxidant nitroxides and nitrones as therapeutic agents” (priority 2001, dated 2004).

How the values were obtained:
[1] = test system: rats with an experimental painful peripheral neuropathy
[2] = test system: quinolic acid-induced hippocampal damage; conditions: rats
[3] = target: PCP and MK-801 binding sites of the NMDA receptor (Homo sapiens, UniProt Q05586); conditions: postmortem human frontal cortex, at therapeutic concentrations
[4] = target: T1, 5-hydroxytryptamine 5-HT3 receptors (Homo sapiens, UniProt P46098)
T1 sequence (P46098 24-478): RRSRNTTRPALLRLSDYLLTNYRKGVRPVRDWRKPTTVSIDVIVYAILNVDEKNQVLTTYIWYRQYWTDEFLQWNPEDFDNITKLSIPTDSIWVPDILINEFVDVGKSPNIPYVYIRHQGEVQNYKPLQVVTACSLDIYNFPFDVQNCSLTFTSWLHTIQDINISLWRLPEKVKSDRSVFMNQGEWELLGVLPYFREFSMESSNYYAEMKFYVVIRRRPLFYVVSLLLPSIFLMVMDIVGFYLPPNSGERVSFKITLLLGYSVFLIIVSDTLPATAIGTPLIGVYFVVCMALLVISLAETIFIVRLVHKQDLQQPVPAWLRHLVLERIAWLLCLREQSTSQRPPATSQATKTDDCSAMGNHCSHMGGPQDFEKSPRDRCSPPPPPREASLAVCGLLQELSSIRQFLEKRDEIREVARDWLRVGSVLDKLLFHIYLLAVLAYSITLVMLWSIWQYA

[5] = target: NMDA receptor (Homo sapiens, UniProt Q05586)
[6] = target: NMDA channel ([3H]dizocilpine binding to brain membranes) (Homo sapiens, UniProt Q05586)
[7] = test system: cortical and retinal neuron cultures
[8] = test system: nicotinic acetylcholine receptors

CC1(C)CC(O)CC(C)(C)N1[O] [4-hydroxy-2,2,6,6-tetramethylpiperidine-1-oxyl]
effect on heat hyperalgesia [1]: alleviated heat hyperalgesia

CC12CC3CC(C)(C1)CC(N)(C3)C2 [Memantine, 1-amino-3,5-dimethyladamantane]
prevention of quinolic acid-induced hippocampal damage [2]: prevents
binding to PCP and MK-801 binding sites [3]: binds
block of 5-HT3 receptors [4]: blocks
antagonist potency at the NMDA receptor [5]: micromolar antagonist
inhibition of [3H]dizocilpine binding [6]: inhibits
protection from toxicity of glutamate, NMDA and HIV-1 coat protein gp120 [7]: protects
block of nicotinic acetylcholine receptors [8]: blocks
